Publication PMC9570109, “Improved Trimethylangelicin Analogs for Cystic Fibrosis: Design, Synthesis and Preliminary Screening” (International Journal of Molecular Sciences, 2022)
Where two headings read alike, the source gives them in different places.

Columns and labels:
F508del CFTR [1] = molecular target: T1, F508del CFTR (Homo sapiens, UniProt P13569, DEL508-508); experiment: F508del CFTR functional rescue (corrector) HS-YFP single-cell assay; type: cell-based; conditions: CFBE41o- YFP-F508del cells; for F508del CFTR rescue (corrector) activity: 48 h incubation, 200 nM
T1 construct: expressed in transfected cells; host or cells: CFBE41o- cells overexpressing F508del CFTR and HS-YFP (YFP-H148Q/I152L), a gift from N. Pedemonte, Gaslini Institute
Protocol: To verify the possibility that the title compounds may act as correctors in CFBE41o-, overexpressing F508del and the high sensitivity halide-sensing yellow fluorescent protein (HS-YFP) YFP-H148Q/I152L, we examined the effect of 48 h preincubation with vehicle or the TMA analogs or TMA or VX809 (Lumacaftor), as a positive control.
At the time of the assay, the correction of the F508del-CFTR function was evaluated in single-cell analysis by measuring the decrease in YFP fluorescence after the concomitant addition of extracellular iodide and the activating cocktail (20 μM forskolin and 5 μM VX770), in the presence or absence of the 10 μM CFTR inhibitor, CFTRinh-172. […] At least two derivatives show CFTR activity similar to that of the parent TMA.
The effect of TMA analogs on CFTR function was tested in CFBE41o- overexpressing F508del and the high sensitivity halide-sensing yellow fluorescent protein (HS-YFP) YFP-H148Q/I152L (a generous gift from N. Pedemonte, Gaslini Institute, Genova, Italy). YFP CF cells were seeded on round glass coverslips and preincubated for 48 h with vehicle or test compounds or VX809 or TMA. At the time of the assay, cells were washed in Dulbecco’s PBS (in mM: 137 NaCl, 2.7 KCl, 8.1 Na2HPO4, 1.5 KH2PO4, 1 CaCl2, and 0.5 MgCl2, pH 7.4) and subsequently incubated with a stimulation cocktail (20 μM forskolin and 5 μM VX770) in the presence and absence of 10 μM CFTR inhibitor, CFTRInh-172 (Sigma), for 30 min. The coverslips were then transferred on a Nikon TMD inverted microscope through a Nikon Fluor 40 objective. The signal was acquired with a Hamamatsu C2400–97 charge-coupled intensified video camera at a rate of 1 frame/3 s. The fluorescence coming from every single cell was analyzed by custom software (Spin, Vicenza, Italy). The results are presented as transformed data to obtain the percentage signal variation (Fx) relative to the time of addition of the stimulus, according to the equation: Fx = ([Ft − Fo]/Fo) × 100, where Ft and Fo are the fluorescence values at time t and at the time of stimulus addition, respectively. The assay of each sample consists of a continuous 99-s fluorescence reading with 30 s before and 69 s after injection of the iodide-rich Dulbecco’s PBS (in mM: 137 NaI, 2.7 KCl, 8.1 Na2HPO4, 1.5 KH2PO4, 1 CaCl2, and 0.5 MgCl2, pH 7.4) to reach a final iodide concentration of 50 mM [20]. The different sensitivity of HS-YFP toward iodide and chloride allows assays to be performed by measuring the transport of anions through the plasma membrane as changes in cell fluorescence. For this assay, cells expressing HS-YFP are equilibrated in a physiological chloride-rich saline solution (e.g., Dulbecco’s PBS). During fluorescence reading, cells are exposed to a high concentration of iodide. Iodide influx quenches the cell fluorescence with a rate that depends on the permeability of the cell membrane to halides, and therefore, on the activity of the anion channels or transporters.
Figure 4 Evaluation of different TMA analogs as F508del CFTR correctors in CFBE41o- YFP-F508del cells. Correction of F508del-CFTR function was assessed, in a single cell, by measuring the decrease in YFP fluorescence upon addition of extracellular iodide and with the activating cocktail, in the presence or absence of CFTR inhibitor, CFTRInh-172. Iodide influx was tested under control condition (vehicle) or after 48 h incubation with the correctors 200 nM or 1 μM VX809. The YFP fluorescence decay rate was calculated by fitting the fluorescence data with an exponential function of time courses. CFTR activity was obtained by the difference between the fluorescence decay rate of YFP in the presence and absence of CFTRInh-172. Fluorescence coming from every single cell of at least five cells per field was recorded. Each bar corresponds to the mean ± SEM of data points coming from at least three different experiments (5–10 different cells/each experiment). […]

[2] = In vivo oral pharmacokinetics in mice; conditions: c57BL/6 male mice
Protocol: The main pharmacokinetic parameters of 4-PhDMA, pANDMA, and pANDMA mesylate were evaluated in c57BL/6 male mice, using water as dispersing vehicle.
All experimental procedures involving animals were conducted in accordance with the 3R principle to minimize their pain and discomfort. […] For the PK analysis, C57Bl6 male mice (n = 3 per time point) were gavaged with selected compounds (20 mg/kg), suspended in water, or dissolved in SEDDS formulations, after an overnight fast. […] 8.0 software (GraphPad Software Inc., San Diego, CA, USA), when appropriate. If not otherwise stated, the PK data are expressed as mean ± SD. p < 0.05 was considered statistically significant.
The TMA analogs were extracted and analyzed from mouse plasma as already reported. Briefly, 100 µL of plasma were treated with 300 µL of cold acetonitrile spiked with 80 nM of internal standard (IS, 6,4′-dimethylangelicin), and then the samples were centrifuged for 10 min at 12,000× g (Hettich Mikro 120 Benchtop Centrifuge) and 25 °C. Ten microliters of the supernatant were injected into the UHPLC system.
The analytical column was a Kinetex 2.6 μm C18 Polar, 100 A, 100 × 2.1 mm (Phenomenex, Bologna, Italy), thermostated at 30 °C. The mobile phase components A and B were water and methanol, respectively, both containing 10 mM ammonium formate. The eluent flow rate was 0.25 mL/min. […] MS data were analyzed using the Mass Hunter Qualitative Analysis software (Agilent Technologies, Palo Alto, CA, USA).
Chromatographic peaks of the TMA analog were identified and integrated by considering the Extracted Ion Chromatogram (EIC) of the [M+H]^+ species selected with a window of 5 ppm and normalized by the IS. Quantification of TMA analogs was carried out by external calibration of normalized signals using a seven-point calibration curve obtained by spiking blank plasma with each TMA analog in the range of 20–3000 nM.

HepG2 cells = experiment: Cytotoxicity MTT assay on HepG2 cells; conditions: HepG2, 24 h, highest concentration tested (50 μM)
Protocol: The potential toxicity of TMA analogs on hepatic tissue was assessed by evaluating the viability of HepG2 cells (ATCC, HB-8065) using the MTT assay, as previously reported [22]. Cells were maintained in DMEM complete medium (10% FBS, 1% l-glutamine and 1% PEN-STREP) and seeded in a 96-well plate (5 × 10^4 cells/mL). They were treated for 24 h with TMA analogs (concentration range from 3.125 μM to 50 μM). At the end of the treatment, cells were washed and an MTT solution (0.5 mg/mL in complete medium) was added to each well and incubated for 4 h at 37 °C. The solution was discarded, and the produced blue formazan crystals were dissolved with acidified isopropanol (2% HCl). Absorbance was measured at 570 nm using a multiplate reader (Victor Nivo, Perkin Elmer). The percentage of viable cells was calculated considering untreated cells as control.
The data shown in this figure are the results of three independent experiments, each
performed in quadruplicate.

salmon testes DNA = experiment: Photoadduct formation with DNA under UVA irradiation (TLC analysis); conditions: 15 J/cm2 UVA
Protocol: The total energy that struck the sample was monitored by means of a radiometer (Variocontrol, Waldmann, Villingen-Schwenningen, Germany), equipped with a Variocontrol UV Sensor (Waldmann). The radiant power emitted by the UVA lamp was about […]. The samples were maintained at room temperature during irradiation.
The test compounds were dissolved in ethanol (2 mg/mL) and salmon testes DNA (Sigma-Aldrich) was dissolved in 10 mM NaCl and 1 mM EDTA solution (1.5 × 10^−3 M). Each test solution (250 μL) was added dropwise to the DNA solution (5 mL). The mixture was irradiated with 15 J/cm2 UVA light in a glass dish for 1 h. After irradiation, the DNA was precipitated with 1 M NaCl and two volumes of cold ethanol; the precipitated DNA was collected, washed with 80% ethanol, dried, and then dissolved in water. To obtain hydrolysis, the final solution was acidified with 1 M HCl, heated at 100 °C for 1 h, neutralized with NaOH and extracted three times with chloroform. Then, all of the organic layers were collected, dried under a high vacuum, and dissolved in ethanol. The hydrolyzed mixtures were separated by thin layer chromatography (TLC; F254 plates, 0.25 mm, Merck, Darmstadt, Germany) eluting with EtOAc/EtOH (9:1). The plates were analyzed with a Mineral Light Lamp VL-4LC VILBERT-LOURMAT (Vilber, Marne-la-Vallée, France).

F508del CFTR [3] = molecular target: T1, F508del CFTR; set-up: method as in PMID 30022950; conditions: nanomolar concentrations; cited from earlier work
NF-kB/DNA interactions = system: NF-kB/DNA interactions; set-up: method as in PMID 29627723; conditions: cited from earlier work
[4] = system: CFTR in FRT-YFP-G551D cells; set-up: method as in PMID 30022950; conditions: cited from earlier work
[5] = set-up: method as in PMID 29627723; conditions: cited from earlier work
[6] = mouse, plasma, po, 20 mg/kg gavage, in water

T1 sequence (P13569 with tags, fused parts or gaps DEL508-508): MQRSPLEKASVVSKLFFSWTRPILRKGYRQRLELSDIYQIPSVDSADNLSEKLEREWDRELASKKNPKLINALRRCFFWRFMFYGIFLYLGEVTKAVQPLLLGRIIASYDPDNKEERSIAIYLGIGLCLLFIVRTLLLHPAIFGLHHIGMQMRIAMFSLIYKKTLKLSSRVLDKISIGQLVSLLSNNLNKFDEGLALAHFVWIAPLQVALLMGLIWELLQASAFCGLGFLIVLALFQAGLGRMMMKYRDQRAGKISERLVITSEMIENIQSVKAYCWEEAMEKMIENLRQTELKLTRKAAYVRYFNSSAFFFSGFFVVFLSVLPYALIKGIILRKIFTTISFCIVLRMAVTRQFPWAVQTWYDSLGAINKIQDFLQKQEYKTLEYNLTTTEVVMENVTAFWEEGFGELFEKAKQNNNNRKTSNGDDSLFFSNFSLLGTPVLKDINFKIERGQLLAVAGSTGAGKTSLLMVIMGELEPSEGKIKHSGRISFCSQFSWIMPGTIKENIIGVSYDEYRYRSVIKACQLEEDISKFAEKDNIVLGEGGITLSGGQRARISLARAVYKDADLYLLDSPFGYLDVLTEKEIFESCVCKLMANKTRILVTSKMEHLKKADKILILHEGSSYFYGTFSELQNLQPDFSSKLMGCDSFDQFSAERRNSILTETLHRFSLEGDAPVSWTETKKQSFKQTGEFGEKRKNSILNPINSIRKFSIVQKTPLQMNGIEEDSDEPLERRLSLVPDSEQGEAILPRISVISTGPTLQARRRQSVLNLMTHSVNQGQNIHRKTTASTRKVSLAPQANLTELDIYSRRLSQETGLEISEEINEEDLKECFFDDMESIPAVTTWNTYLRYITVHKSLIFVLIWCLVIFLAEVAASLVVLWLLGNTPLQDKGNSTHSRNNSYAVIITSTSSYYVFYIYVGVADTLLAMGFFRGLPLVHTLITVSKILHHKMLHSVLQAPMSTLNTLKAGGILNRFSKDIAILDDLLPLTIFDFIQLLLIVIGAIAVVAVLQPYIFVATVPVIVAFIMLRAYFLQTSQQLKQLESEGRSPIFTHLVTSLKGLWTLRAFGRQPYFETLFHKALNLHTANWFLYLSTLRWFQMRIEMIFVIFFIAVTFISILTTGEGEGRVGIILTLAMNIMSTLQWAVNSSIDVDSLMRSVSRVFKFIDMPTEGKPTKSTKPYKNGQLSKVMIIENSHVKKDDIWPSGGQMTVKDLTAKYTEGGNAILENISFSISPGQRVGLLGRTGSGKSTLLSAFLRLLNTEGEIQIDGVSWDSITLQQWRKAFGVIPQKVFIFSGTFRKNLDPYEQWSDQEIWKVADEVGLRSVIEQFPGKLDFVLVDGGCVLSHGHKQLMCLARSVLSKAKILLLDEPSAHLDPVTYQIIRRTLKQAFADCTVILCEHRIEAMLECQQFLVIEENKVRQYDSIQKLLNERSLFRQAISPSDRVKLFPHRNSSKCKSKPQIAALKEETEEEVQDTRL

CCc1cc2c(-c3ccccc3)cc(=O)oc2c2c(C)coc12 [4-PhEMA]
F508del CFTR rescue (corrector) activity (F508del CFTR [1]): inactive

CS(=O)(=O)O.Cc1cc(=O)oc2c1cc(-c1ccc(N)cc1)c1occ(C)c12 [pANDMA mesylate]
reduction in YFP fluorescence induced by iodide influx compared to vehicle (F508del CFTR [1]; 48 h treatment, representative time courses): greater reduction in YFP fluorescence
AUC 0-inf ([2]; 20 mg/kg gavage, in water): 9.4026 ± 0.7422 µM·h
CL/F ([2]; 20 mg/kg gavage, in water): 0.0091 ± 0.0002 mL/h/g
Cmax ([2]; 20 mg/kg gavage, in water): 3870 ± 1070 nM
Tmax ([2]; 20 mg/kg gavage, in water): 0.375 ± 0.177 h
t1/2 ([2]; 20 mg/kg gavage, in water): 1.87 ± 0.43 h
bioavailability relative to pANDMA ([2]; water as vehicle): nearly four-times more bioavailable
cell viability (HepG2 cells): greater than 75%

Cc1cc(=O)oc2c1cc(-c1cccs1)c1occ(C)c12 [ThiDMA]
F508del CFTR rescue (corrector) activity (F508del CFTR [1]): inactive

Cc1cc(=O)oc2c1cc(-c1ccncc1)c1occ(C)c12 [PyDMA]
F508del CFTR rescue (corrector) activity (F508del CFTR [1]): inactive

Cc1coc2c(-c3ccccc3)cc3c(C(C)C)cc(=O)oc3c12 [IPPhMA]
F508del CFTR rescue (corrector) activity (F508del CFTR [1]): inactive

Cc1cc(=O)oc2c1cc(-c1cccc(N)c1)c1occ(C)c12 [mANDMA]
F508del CFTR rescue (corrector) activity (F508del CFTR [1]): inactive

Cc1cc(=O)oc2c1cc(C)c1occ(C)c12 [TMA, 4,6,4′-trimethylangelicin, reference compound]
photoadduct formation with DNA upon UVA irradiation (salmon testes DNA): showed photoadducts

Cc1coc2c(-c3ccccc3)cc3c(C4CC4)cc(=O)oc3c12 [CPPhMA]
F508del CFTR rescue (corrector) activity (F508del CFTR [1]): inactive

CCc1cc2c(C(C)C)cc(=O)oc2c2c(C)coc12 [IPEMA, 4-isopropyl-6-ethyl-4′-methylangelicin]
CL/F ([2]; 20 mg/kg gavage, in water): 0.0633 ± 0.005 mL/h/g
oral bioavailability ([2]; water as vehicle): very low
Cmax [2, 6]: 120 ± 55.3 nM
half-life [2, 6]: 9.01 ± 1.34 h
AUC 0-inf ([2]; mouse, plasma, po, 20 mg/kg gavage, in water, read-out: AUC 0-inf): 0.395 ± 0.0987 µM·h
Tmax ([2]; mouse, plasma, po, 20 mg/kg gavage, in water, read-out: Tmax): 1 h
rescue of F508del CFTR-dependent chloride efflux (F508del CFTR [3]): significantly rescued
inhibitory activity on NF-kB/DNA interactions (NF-kB/DNA interactions): TMA-like inhibitory activity
potentiation activity of CFTR [4]: maintained the potentiation activity
mutagenicity and DNA damaging properties [5]: lacking mutagenicity and DNA damaging properties
